From ChEMBL document CHEMBL4627269, “New thiopyrimidine-benzenesulfonamide conjugates as selective carbonic anhydrase II inhibitors: synthesis, in vitro biological evaluation, and molecular docking studies” (Bioorg Med Chem, 2020) come the findings set out here.

Experiment [1] has as its target Carbonic anhydrase 9 (Homo sapiens, UniProt Q16790). As to the kind of experiment: Inhibition of human carbonic anhydrase 9 incubated for 15 mins prior to testing measured for 10 to 100 secs by phenol red dye based stopped-flow CO2 hydration assay.
Experiment [2] deals with Carbonic anhydrase 1 (Homo sapiens, UniProt P00915). As to the kind of experiment: Inhibition of human carbonic anhydrase 1 incubated for 15 mins prior to testing measured for 10 to 100 secs by phenol red dye based stopped-flow CO2 hydration assay.
Sequence of Carbonic anhydrase 1 (P00915 whole entry): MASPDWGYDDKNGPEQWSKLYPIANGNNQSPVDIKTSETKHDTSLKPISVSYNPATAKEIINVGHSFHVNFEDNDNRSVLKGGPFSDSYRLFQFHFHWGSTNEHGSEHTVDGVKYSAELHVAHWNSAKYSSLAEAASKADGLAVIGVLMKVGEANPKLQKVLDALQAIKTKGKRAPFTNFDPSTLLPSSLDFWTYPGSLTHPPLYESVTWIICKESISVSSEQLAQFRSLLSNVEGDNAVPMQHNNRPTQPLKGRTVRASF
For experiment [3], the target named is T1, Carbonic anhydrase 2 (Homo sapiens, UniProt P00918). Briefly: Inhibition of recombinant human carbonic anhydrase 2 expressed in Escherichia coli BL21 (DE3) using 4-nitrophenyl acetate as substrate incubated for 10 mins prior to testing by spectrophotometric method.
Experiment [4] concerns the target T1, Carbonic anhydrase 2. Briefly: Inhibition of recombinant human carbonic anhydrase 2 incubated for 15 mins prior to testing measured for 10 to 100 secs by phenol red dye based stopped-flow CO2 hydration assay.
The target in experiment [5] is Carbonic anhydrase 12 (Homo sapiens, UniProt O43570). As to the kind of experiment: Inhibition of human carbonic anhydrase 12 incubated for 15 mins prior to testing measured for 10 to 100 secs by phenol red dye based stopped-flow CO2 hydration assay.
Sequence of Carbonic anhydrase 12 (O43570 whole entry): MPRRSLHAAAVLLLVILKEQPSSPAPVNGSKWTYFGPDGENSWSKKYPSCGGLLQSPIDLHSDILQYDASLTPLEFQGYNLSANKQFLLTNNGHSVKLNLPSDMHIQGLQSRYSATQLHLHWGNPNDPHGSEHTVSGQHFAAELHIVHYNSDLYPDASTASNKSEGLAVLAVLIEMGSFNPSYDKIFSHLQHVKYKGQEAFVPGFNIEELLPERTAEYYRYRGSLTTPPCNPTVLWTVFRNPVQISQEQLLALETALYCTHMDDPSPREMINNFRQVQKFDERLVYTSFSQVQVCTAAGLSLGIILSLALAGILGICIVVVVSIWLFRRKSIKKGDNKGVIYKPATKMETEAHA

The structures appear in SMILES notation. pKi: −log10 of the molar value. Bounds are passed on as bounds.

The molecule `O=C(CSc1nccc(Nc2ccc(S(=O)(=O)Nc3cncs3)cc2)n1)c1ccc(C(F)(F)F)cc1` had a pKi in experiment [1] of less than 4.00.

`NS(=O)(=O)c1ccc(Nc2ccnc(SCC(=O)c3ccc(Cl)cc3)n2)cc1` showed a pKi in experiment [1] of less than 4.00.

For `O=C(CSc1nccc(Nc2ccc(S(=O)(=O)Nc3ccccn3)cc2)n1)c1ccc(Cl)cc1`, the pKi in experiment [2] and in experiment [1] was less than 4.00 throughout.

Turning to `NS(=O)(=O)c1ccc(Nc2ccnc(NS(=O)(=O)c3cccnc3)n2)cc1`, the pKi in experiment [3] was 8.40.

`NS(=O)(=O)c1ccc(Nc2ccnc(SCC(=O)c3ccc(F)cc3)n2)cc1` had a pKi in experiment [1] of 6.09.

Regarding `COc1ccc(C(=O)CSc2nccc(Nc3ccc(S(=O)(=O)Nc4ccccn4)cc3)n2)cc1`, the pKi in experiment [2], in experiment [4] and in experiment [1] was less than 4.00 each time.

`O=C(CSc1nccc(Nc2ccc(S(=O)(=O)Nc3cncs3)cc2)n1)c1ccccc1` showed a pKi in experiment [1] of less than 4.00.

For the molecule `Cc1cc(NS(=O)(=O)c2ccc(Nc3ccnc(SCC(=O)c4ccc(F)cc4)n3)cc2)no1`, the results for the pKi in experiment [5], in experiment [2] and in experiment [1] were less than 4.00, less than 4.00 and 4.04, respectively.

Regarding `COc1ccc(C(=O)CSc2nccc(Nc3ccc(S(=O)(=O)Nc4cc(C)on4)cc3)n2)cc1`, in experiment [1], the pKi is less than 4.00.

On to `NS(=O)(=O)c1ccc(Nc2ccnc(SCC(=O)c3ccccc3)n2)cc1`, for which the pKi in experiment [1] was 6.80.

As for `COc1ccc(C(=O)CSc2nccc(Nc3ccc(S(N)(=O)=O)cc3)n2)cc1`, in experiment [1], the pKi was 5.29.

With `Cc1cc(NS(=O)(=O)c2ccc(Nc3ccnc(SCC(=O)c4ccc(Cl)cc4)n3)cc2)no1`, the pKi in experiment [2] is less than 4.00; in experiment [1] it was 5.05.

In the case of `NS(=O)(=O)c1ccc(Nc2ccnc(SCC(=O)c3ccc(Br)cc3)n2)cc1`, in experiment [1], the pKi was less than 4.00.

Take `O=C(CSc1nccc(Nc2ccc(S(=O)(=O)Nc3ccccn3)cc2)n1)c1ccccc1`: the pKi in experiment [2] and in experiment [1] was less than 4.00 each time.

On to `NS(=O)(=O)c1ccc(Nc2ccnc(SCC(=O)c3ccc(-c4ccccc4)cc3)n2)cc1`, for which the values for the pKi in experiment [2] and in experiment [1] were less than 4.00 and 6.64, respectively.

On to `COc1ccc(C(=O)CSc2nccc(Nc3ccc(S(=O)(=O)Nc4ncccn4)cc3)n2)cc1`, for which the pKi in experiment [2] is less than 4.00; in experiment [4], less than 4.00; in experiment [1], 5.60.

In the case of `NS(=O)(=O)c1ccc(Nc2ccnc(SCC(=O)c3ccc(C(F)(F)F)cc3)n2)cc1`, in experiment [1], the pKi was 4.41.

In the case of `O=C(CSc1nccc(Nc2ccc(S(=O)(=O)Nc3cncs3)cc2)n1)c1ccc(Cl)cc1`, the pKi in experiment [1] was 6.26.

Take `NS(=O)(=O)c1ccc(Nc2ccnc(NS(=O)(=O)c3cccc(C(F)(F)F)c3)n2)cc1`: the pKi in experiment [3] was 9.00.

For the molecule `CC(=O)NS(=O)(=O)c1ccc(Nc2ccnc(SCC(=O)c3ccc(Cl)cc3)n2)cc1`, the pKi in experiment [1] is less than 4.00.

For orientation: pKi means the negative decadic logarithm of the Ki, by convention in mol/L.
